Laboratory results reported in US4355040A, “Hypotensive imidazole-5-acetic acid derivatives” (Takeda Chemical Industries, Ltd., priority 1979, dated 1982).
Where a name gives a salt, the structure may show the parent alone.

system: angiotensin II (aortic blood vessel of rabbits); experiment: Antagonistic effect on angiotensin II (A II)-induced tension, aortic blood vessel of rabbits; type: cell-based; details: Oryctolagus cuniculus, 0.25 h
Excerpt: Antagonistic effect of the compound (I) of the present invention on angiotensin II (hereinafter referred to briefly as "A II") (with aortic blood vessel of rabbits)
The blood-vessel preparation and reaction were done in accordance with the method as described in "European Journal of Pharmacology", 18, 316 (1972). […] [formula] where; T1 =Change in isometric tension of the blood vessel brought about by A II without a test drug substance (g)

SMILES	inhibition at 10 µM [%]	inhibition at 1 µM [%]
CN(C)c1c([N+](=O)[O-])cc(-c2nc(Cl)c(CC(=O)O)n2Cc2ccccc2)cc1[N+](=O)[O-]	86	–
O=C(O)Cc1c(Cl)nc(-c2cc([N+](=O)[O-])c(Cl)c([N+](=O)[O-])c2)n1Cc1ccccc1 [drawing 108]	–	82

same assay, conditions: Oryctolagus cuniculus, 0.25 h; 10^-5 M drug substance; A II 4×10^-9 M; 15 minutes; read-out: Inhibition

SMILES	inhibition at 10 µM [%]
Cc1ccccc1Cn1c(-c2ccccc2)nc(Cl)c1CC(=O)O	58
CCCCNc1ccc(-c2nc(Cl)c(CC(=O)O)n2Cc2ccccc2)cc1	63
O=C(O)Cc1c(Cl)nc(-c2ccccc2[N+](=O)[O-])n1Cc1ccccc1	35
Nc1ccccc1-c1nc(Cl)c(CC(=O)O)n1Cc1ccccc1	30
O=C(O)Cc1c(Cl)nc(-c2cccc(O)c2)n1Cc1ccccc1	18
O=C(O)Cc1c(Cl)nc(-c2ccc3c(c2)OCO3)n1Cc1ccccc1	51
CN(C)c1ccc(-c2nc(Cl)c(CC(=O)O)n2Cc2ccccc2)cc1[N+](=O)[O-]	73
O=C(O)Cc1c(Cl)nc(-c2ccccc2O)n1Cc1ccccc1	55
COc1ccc(Cn2c(-c3ccccc3)nc(Cl)c2CC(=O)O)cc1	61
O=C(O)Cc1c(Cl)nc(-c2ccccc2)n1Cc1ccc(Cl)cc1Cl [1-(2,4-dichlorobenzyl)-4-chloro-2-phenylimidazole-5-acetic acid hydrochloride]	30
O=C(O)Cc1c(Cl)nc(-c2ccccc2)n1Cc1ccc(OCc2ccccc2)cc1 [1-(4-benzyloxybenzyl)-4-chloro-2-phenylimidazole-5-acetic acid]	19
O=C(O)Cc1c(Cl)nc(-c2ccccc2)n1Cc1ccc(Cl)cc1 [1-(4-chlorobenzyl)-4-chloro-2-phenylimidazole-5-acetic acid]	25
COc1cccc(Cn2c(-c3ccccc3)nc(Cl)c2CC(=O)O)c1 [4-chloro-1-(3-methoxybenzyl)-2-phenylimidazole-5-acetic acid]	73
Cc1ccc(Cn2c(-c3ccccc3)nc(Cl)c2CC(=O)O)cc1 [4-chloro-1-(4-methylbenzyl)-2-phenylimidazole-5-acetic acid]	80
Cc1nc(Cl)c(CC(=O)O)n1Cc1ccccc1 [CH3 / H / H / H]	38
O=C(O)Cc1c(Cl)nc(-c2ccccc2)n1Cc1ccccc1Cl [drawing 92]	90
Nc1ccc(-c2nc(Cl)c(CC(=O)O)n2Cc2ccccc2)cc1 [drawing 101]	50
O=C(O)Cc1c(Cl)nc(-c2ccc(O)cc2)n1Cc1ccccc1 [drawing 103]	32

same assay, conditions: Oryctolagus cuniculus, 0.25 h; 10^-6 M drug substance; A II 4×10^-9 M; 15 minutes; read-out: Inhibition

SMILES	inhibition at 1 µM [%]
O=C(O)Cc1c(Cl)nc(-c2ccccc2)n1Cc1c(Cl)cccc1Cl	34
O=C(O)Cc1c(Cl)nc(-c2ccccc2)n1Cc1c(F)cccc1Cl	64
O=C(O)Cc1c(Cl)nc(-c2ccccc2)n1Cc1ccccc1Br	60
CCN(CC)c1ccc(-c2nc(Cl)c(CC(=O)O)n2Cc2ccccc2)cc1Cl	25
CN(C)c1ccc(-c2nc(Cl)c(CC(=O)O)n2Cc2ccccc2)cc1Cl	33
CN(C)c1ccc(-c2nc(Cl)c(CC(=O)O)n2Cc2ccccc2)cc1Br	18
O=C(O)Cc1c(Cl)nc(-c2ccc(O)c(O)c2)n1Cc1ccccc1	34
COc1cccc(-c2nc(Cl)c(CC(=O)O)n2Cc2ccccc2Cl)c1	23
COc1cc(-c2nc(Cl)c(CC(=O)O)n2Cc2ccccc2)ccc1O	16
COc1ccccc1Cn1c(-c2ccccc2)nc(Cl)c1CC(=O)O	42
CCOc1ccc(Cn2c(-c3ccccc3)nc(Cl)c2CC(=O)O)cc1	43
CCOc1ccccc1Cn1c(-c2ccccc2)nc(Cl)c1CC(=O)O	41
COc1ccc(Cn2c(-c3ccccc3)nc(Cl)c2CC(=O)O)cc1OC	38
CCOc1ccc(Cn2c(-c3ccccc3)nc(Cl)c2CC(=O)O)cc1C	81
COc1ccc(-c2nc(Cl)c(CC(=O)O)n2Cc2ccccc2)cc1OC	18
COc1ccc(-c2nc(Cl)c(CC(=O)O)n2Cc2ccccc2)cc1C	32
COc1ccc(Cn2c(-c3ccc(OC)c(C)c3)nc(Cl)c2CC(=O)O)cc1C	54

SMILES	inhibition at 1 µM [%]
COc1cc(-c2nc(Cl)c(CC(=O)O)n2Cc2ccccc2)ccc1OCc1ccccc1	18
O=C(O)Cc1c(Cl)nc(C2CCCC2)n1Cc1ccccc1	34
O=C(O)Cc1c(Cl)nc(C2CCCCC2)n1Cc1ccccc1	18
O=C(O)Cc1c(Cl)nc(-c2ccccc2)n1Cc1cc([N+](=O)[O-])ccc1Cl [1-(2-chloro-5-nitrobenzyl)-4-chloro-2-phenylimidazole-5-acetic acid]	34
O=C(O)Cc1c(Cl)nc(-c2ccccc2)n1Cc1ccccc1F [4-chloro-1-(2-fluorobenzyl)-2-phenylimidazole-5-acetic acid]	23
CCc1nc(Cl)c(CC(=O)O)n1Cc1ccccc1 [C2 H5 / H / H / H]	36
CCCCOc1ccc(Cn2c(-c3ccccc3)nc(Cl)c2CC(=O)O)cc1 [drawing 121]	56
COc1ccc(Cn2c(-c3ccccc3)nc(Cl)c2CC(=O)O)cc1C [drawing 124, 4-chloro-1-(3-methyl-4-methoxybenzyl)-2-phenylimidazole-5-acetic acid]	80
CC(C)c1nc(Cl)c(CC(=O)O)n1Cc1ccccc1 [i-C3 H7 / H / H / H]	41
CCCc1nc(Cl)c(CC(=O)O)n1Cc1ccccc1 [n-C3 H7 / H / H / H]	22
CCCCc1nc(Cl)c(CC(=O)O)n1Cc1ccccc1OCC [n-C4 H9 / 2-C2 H5 O / H / H, 2-Butyl-4-chloro-1-(2-ethoxybenzyl)imidazole-5-acetic acid]	53
CCCCc1nc(Cl)c(CC(=O)O)n1Cc1ccc(OC)c(C)c1 [n-C4 H9 / 3-CH3 / 4-CH3 O / H]	99
CCCCOc1ccc(Cn2c(CCCC)nc(Cl)c2CC(=O)O)cc1 [n-C4 H9 / 4-n-C4 H9 O / H / H]	85
CCCCCCc1nc(Cl)c(CC(=O)O)n1Cc1ccc(OC)c(C)c1 [n-C6 H13 / 3-CH3 / 4-CH3 O / H]	100
CCCCCCc1nc(Cl)c(CC(=O)O)n1Cc1ccc(OCCCC)cc1 [n-C6 H13 / 4-n-C4 H9 O / H / H]	100
CCCCCc1nc(Cl)c(CC(=O)O)n1Cc1ccccc1 [n-C 5 H11 / H / H / H]	65
CC(C)(C)c1nc(Cl)c(CC(=O)O)n1Cc1ccccc1 [t-C4 H9 / H / H / H]	10

same assay, conditions: Oryctolagus cuniculus, 0.25 h; 10^-7 M drug substance; A II 4×10^-9 M; 15 minutes

SMILES	inhibition at 0.1 µM [%]
CCCCCc1nc(Cl)c(CC(=O)O)n1Cc1ccccc1Cl [n-C5 H11 / 2-Cl / H / H]	57
CCCCCCc1nc(Cl)c(CC(=O)O)n1Cc1ccccc1Cl [n-C6 H13 / 2-Cl / H / H]	84

same assay, conditions: Oryctolagus cuniculus, 0.25 h; 10^-8 M drug substance; A II 4×10^-9 M; 15 minutes

SMILES	inhibition at 0.01 µM [%]
CCCCc1nc(Cl)c(CC(=O)O)n1Cc1ccccc1[N+](=O)[O-] [n-C4 H9 / 2-NO2 / H / H]	30

system: angiotensin II-induced elevation of blood pressure; experiment: Inhibitory activity against angiotensin II-induced elevation of blood pressure in rats; type: in vivo, Male SD rats; details: Rattus norvegicus, iv, 10 min, read-out: Inhibition (%), after 10 min.

SMILES	inhibition in vivo at 0.1 mg/kg [%]	inhibition in vivo at 0.3 mg/kg [%]
O=C(O)Cc1c(Cl)nc(-c2cc([N+](=O)[O-])c(Cl)c([N+](=O)[O-])c2)n1Cc1ccccc1 [drawing 135]	22.5 ± 3.2	18

same assay, conditions: Rattus norvegicus, iv, 10 min; 0.3 mg/kg intravenously; A II 20 ng/kg/min; 10 min; read-out: Inhibition (%), after 10 min.

SMILES	inhibition in vivo at 0.3 mg/kg [%]
O=C(O)Cc1c(Cl)nc(-c2ccc(O)cc2)n1Cc1ccccc1 [drawing 132]	10.7 ± 1.8

same assay, conditions: Rattus norvegicus, iv, 10 min; 0.5 mg/kg intravenously; A II 20 ng/kg/min; 10 min; read-out: Inhibition (%), after 10 min.

SMILES	inhibition in vivo at 0.5 mg/kg [%]
O=C(O)Cc1c(Cl)nc(-c2ccc(O)cc2)n1Cc1ccccc1 [drawing 132]	14.8 ± 1.8
Nc1ccc(-c2nc(Cl)c(CC(=O)O)n2Cc2ccccc2)cc1 [drawing 133]	17.7 ± 1.2

same assay, conditions: Rattus norvegicus, iv, 10 min; 1.0 mg/kg intravenously; A II 20 ng/kg/min; 10 min; read-out: Inhibition (%), after 10 min.

SMILES	inhibition in vivo at 1 mg/kg [%]
O=C(O)Cc1c(Cl)nc(-c2ccccc2)n1Cc1ccccc1Cl [drawing 134]	11.8 ± 1.8

same assay, conditions: Rattus norvegicus, iv, 0.5 h, read-out: Inhibition (%), after 30 min.

SMILES	inhibition in vivo at 0.1 mg/kg [%]	inhibition in vivo at 0.3 mg/kg [%]
O=C(O)Cc1c(Cl)nc(-c2cc([N+](=O)[O-])c(Cl)c([N+](=O)[O-])c2)n1Cc1ccccc1 [drawing 135]	55 ± 7.5	72

same assay, conditions: Rattus norvegicus, iv, 0.5 h; 0.3 mg/kg intravenously; A II 20 ng/kg/min; 30 min; read-out: Inhibition (%), after 30 min.

SMILES	inhibition in vivo at 0.3 mg/kg [%]
O=C(O)Cc1c(Cl)nc(-c2ccc(O)cc2)n1Cc1ccccc1 [drawing 132]	24.3 ± 2.3

same assay, conditions: Rattus norvegicus, iv, 0.5 h; 0.5 mg/kg intravenously; A II 20 ng/kg/min; 30 min; read-out: Inhibition (%), after 30 min.

SMILES	inhibition in vivo at 0.5 mg/kg [%]
O=C(O)Cc1c(Cl)nc(-c2ccc(O)cc2)n1Cc1ccccc1 [drawing 132]	36 ± 3
Nc1ccc(-c2nc(Cl)c(CC(=O)O)n2Cc2ccccc2)cc1 [drawing 133]	45.3 ± 2.4

same assay, conditions: Rattus norvegicus, iv, 0.5 h; 1.0 mg/kg intravenously; A II 20 ng/kg/min; 30 min; read-out: Inhibition (%), after 30 min.

SMILES	inhibition in vivo at 1 mg/kg [%]
O=C(O)Cc1c(Cl)nc(-c2ccccc2)n1Cc1ccccc1Cl [drawing 134]	36.5 ± 4.5

same assay, conditions: Rattus norvegicus, iv, 1.5 h, read-out: Inhibition (%), after 90 min.

SMILES	inhibition in vivo at 0.1 mg/kg [%]	inhibition in vivo at 0.3 mg/kg [%]
O=C(O)Cc1c(Cl)nc(-c2cc([N+](=O)[O-])c(Cl)c([N+](=O)[O-])c2)n1Cc1ccccc1 [drawing 135]	55 ± 7.5	72

same assay, conditions: Rattus norvegicus, iv, 1.5 h; 0.3 mg/kg intravenously; A II 20 ng/kg/min; 90 min; read-out: Inhibition (%), after 90 min.

SMILES	inhibition in vivo at 0.3 mg/kg [%]
O=C(O)Cc1c(Cl)nc(-c2ccc(O)cc2)n1Cc1ccccc1 [drawing 132]	11.7 ± 6

same assay, conditions: Rattus norvegicus, iv, 1.5 h; 0.5 mg/kg intravenously; A II 20 ng/kg/min; 90 min; read-out: Inhibition (%), after 90 min.

SMILES	inhibition in vivo at 0.5 mg/kg [%]
O=C(O)Cc1c(Cl)nc(-c2ccc(O)cc2)n1Cc1ccccc1 [drawing 132]	35 ± 3.9
Nc1ccc(-c2nc(Cl)c(CC(=O)O)n2Cc2ccccc2)cc1 [drawing 133]	37 ± 8.6

same assay, conditions: Rattus norvegicus, iv, 1.5 h; 1.0 mg/kg intravenously; A II 20 ng/kg/min; 90 min; read-out: Inhibition (%), after 90 min.

SMILES	inhibition in vivo at 1 mg/kg [%]
O=C(O)Cc1c(Cl)nc(-c2ccccc2)n1Cc1ccccc1Cl [drawing 134]	32.3 ± 7
